Laboratory results as given in patent publication US12606552B2, “Bifunctional compound, preparation method therefor, and use thereof” (SUZHOU KINTOR PHARMACEUTICALS, INC., priority 2020, dated 2026).

Legend:
AR = target: T1, AR (Homo sapiens, UniProt P10275, T878A); test: Effects of compounds on AR expression in LNCaP cells (ELISA, DC50); format: cell-based; set-up: Measurement of the Effects of Drugs on the Expression of AR in Cells by ELISA Method; endogenous in cells; host or cells: LNCaP; conditions: 24 hours of drug treatment, AR by ELISA
T1 sequence (P10275 1-920 T878A): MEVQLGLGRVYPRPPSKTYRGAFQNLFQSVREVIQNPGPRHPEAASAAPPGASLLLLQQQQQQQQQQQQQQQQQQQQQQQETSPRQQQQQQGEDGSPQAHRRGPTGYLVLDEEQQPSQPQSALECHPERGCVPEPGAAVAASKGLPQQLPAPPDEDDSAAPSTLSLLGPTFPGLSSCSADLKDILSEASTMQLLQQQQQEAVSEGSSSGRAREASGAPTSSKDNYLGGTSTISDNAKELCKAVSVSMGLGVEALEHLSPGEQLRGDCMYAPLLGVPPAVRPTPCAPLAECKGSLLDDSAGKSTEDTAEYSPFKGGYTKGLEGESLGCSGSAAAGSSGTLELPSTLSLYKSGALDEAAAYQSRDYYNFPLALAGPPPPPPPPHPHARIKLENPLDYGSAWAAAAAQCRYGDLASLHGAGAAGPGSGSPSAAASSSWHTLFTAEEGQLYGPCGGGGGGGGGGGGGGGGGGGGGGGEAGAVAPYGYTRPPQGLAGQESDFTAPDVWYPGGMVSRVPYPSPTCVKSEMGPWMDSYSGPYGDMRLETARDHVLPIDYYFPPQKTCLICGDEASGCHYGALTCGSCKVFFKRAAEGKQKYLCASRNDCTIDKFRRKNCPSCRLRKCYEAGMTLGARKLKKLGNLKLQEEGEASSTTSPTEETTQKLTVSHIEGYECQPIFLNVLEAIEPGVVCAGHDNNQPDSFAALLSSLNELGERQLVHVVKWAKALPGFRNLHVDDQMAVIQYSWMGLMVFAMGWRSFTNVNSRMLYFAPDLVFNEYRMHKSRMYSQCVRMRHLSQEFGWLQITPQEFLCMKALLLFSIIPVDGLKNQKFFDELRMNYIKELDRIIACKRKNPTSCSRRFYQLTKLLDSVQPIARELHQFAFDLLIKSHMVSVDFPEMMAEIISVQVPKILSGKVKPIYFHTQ
Outline: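 LNCaP cells at about 15,000/well were treated for 24 h with compound at 0.0001–2 μmol/L final. AR in cell lysates was measured by ELISA (OD450). Inhibition was relative to DMSO control after blank subtraction, and DC50 was calculated from it.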

[1] = Pharmacokinetic studies of compounds in mice; format: in vivo; conditions: male mice, intragastric administration 10 mg/kg, plasma
Procedure: Activity Assay Example 3: Pharmacokinetic Studies of Compounds in Mice
In this test, 3 male mice were selected and divided into 1 group, 3 mice/group. All animals were fasted overnight before administration.
The intragastric administration dose was 10 mg/kg, and the administration volume was 10 mL/kg.
2.2 Preparation of Drug Solution
According to the animal body weight combined with the administration dose, the amount of the required drug solution was calculated. An appropriate amount of the test substance was weighed, added with 5% of the final volume of ethanol for dissolution, then added with 5% of the final volume of SolutolHS15, and finally added with PBS to the final volume, and mixed by vortex and fully dissolved to obtain a solution for intragastric administration (1 mg/mL). All solutions were prepared for immediate use.
2.3 Method of Administration
Before administration, the drug solution was placed on a magnetic stirrer in the animal laboratory and stirred for at least 10 min. During the administration process, vortex was continued to ensure uniformity of the drug solution. The theoretical volume of gavage administration was 10 mL/kg, which was administered with a syringe equipped with a gavage needle.
Before administration, the animals were weighed and the body weight of the animals involved in the experiment was recorded, and the administration volume of each animal was calculated according to the body weight. After administration, animals were promptly transferred back to the experimental cages to collect samples.
2.4 Observation of Animal Status
After administration, whether animals had abnormal reactions was observed immediately. If there were no abnormal reactions, animals were observed twice a day during the experiment. If abnormal reactions were found, they should be recorded in time, and the number of observations should be increased until the animals returned to normal or to the end of the experiment.
2.5 Sample Collection and Preservation
All experimental animals were fasted overnight before administration, and blood was collected at corresponding time points into blood collection tubes containing heparin sodium anticoagulant. After the whole blood was collected, the blood collection tube was gently shaken and placed on ice immediately, and then centrifuged (4° C., 4000 rpm, 10 min) to collect supernatant plasma samples, which were stored in a refrigerator at −80° C. before analysis.
2.6 Plasma Sample Processing and Analysis
The collected plasma samples were handed over to the Pharmacokinetic department for sample extraction, and the test substances in the plasma were extracted by protein precipitation method using organic reagents containing internal standards (acetonitrile:plasma=4:1, v/v). The extracted processed samples were submitted for quantitative concentration analysis by LC-MS/MS. According to the plasma concentration of each animal obtained by the analysis, software Kinetica (version 5.0) was used to calculate the main pharmacokinetic parameter eAUC30-120 according to the non-compartment model to evaluate the exposure amount; the test results are shown in Table 2: […]

For `Cc1ncsc1-c1ccc(CNC(=O)[C@@H]2C[C@@H](O)CN2C(=O)[C@@H](NC(=O)COCCCCOc2c(F)cc(-c3ncc(N4C(=S)N(c5ccc(C#N)c(C(F)(F)F)c5F)C(=O)C4(C)C)cc3C(F)(F)F)cc2F)C(C)(C)C)cc1` [Compound A79], the DC50 (AR) was 129 nM and the “eAUC0.5-2 h” value [1] was 950 ± 114 ng·h/mL.

In the case of `Cc1ncsc1-c1ccc(CNC(=O)[C@@H]2C[C@@H](O)CN2C(=O)[C@@H](NC(=O)COCCCCOc2ccc(-c3ccc(N4C(=S)N(c5ccc(C#N)c(C(F)(F)F)c5F)C(=O)C4(C)C)cn3)cc2Cl)C(C)(C)C)cc1` [Compound A83], the DC50 (AR) is reported as 87.8 nM and the “eAUC0.5-2 h” value [1] is reported as 574 ± 176 ng·h/mL.

With `Cc1ncsc1-c1ccc(CNC(=O)[C@@H]2C[C@@H](O)CN2C(=O)[C@@H](NC(=O)COCCCCOc2ccc(-c3ccc(N4C(=S)N(c5ccc(C#N)c(C(F)(F)F)c5F)C(=O)C4(C)C)cn3)cc2C(F)(F)F)C(C)(C)C)cc1` [Compound A84] the DC50 (AR) was 140 nM and the “eAUC0.5-2 h” value [1] was 774 ± 119 ng·h/mL.

In the case of `Cc1ncsc1-c1ccc(CNC(=O)[C@@H]2C[C@@H](O)CN2C(=O)[C@@H](NC(=O)COCCOCCOc2ccc(-c3ccc(N4C(=S)N(c5ccc(C#N)c(C(F)(F)F)c5F)C(=O)C4(C)C)cn3)cc2F)C(C)(C)C)cc1` [Compound A85], the DC50 (AR) is reported as 33 nM and the “eAUC0.5-2 h” value [1] is reported as 70 ± 23 ng·h/mL.

With `Cc1ncsc1-c1ccc(CNC(=O)[C@@H]2C[C@@H](O)CN2C(=O)[C@@H](NC(=O)COCCCCCOc2ccc(-c3ncc(N4C(=S)N(c5ccc(C#N)c(C(F)(F)F)c5F)C(=O)C4(C)C)cc3F)cc2F)C(C)(C)C)cc1` [Compound A89] the DC50 (AR) was 72 nM and the “eAUC0.5-2 h” value [1] was 501 ± 103.57 ng·h/mL.

For `Cc1ncsc1-c1ccc(CNC(=O)[C@@H]2C[C@@H](O)CN2C(=O)[C@@H](NC(=O)COCCOCCOc2ccc(-c3ncc(N4C(=S)N(c5ccc(C#N)c(C(F)(F)F)c5F)C(=O)C4(C)C)cc3F)cc2F)C(C)(C)C)cc1` [Compound A90], the DC50 (AR) was 36.4 nM and the “eAUC0.5-2 h” value [1] was 96 ± 28.51 ng·h/mL.

For `Cc1ncsc1-c1ccc(CNC(=O)[C@@H]2C[C@@H](O)CN2C(=O)[C@@H](NC(=O)COCCOc2ccc(-c3ncc(N4C(=S)N(c5ccc(C#N)c(C(F)(F)F)c5F)C(=O)C4(C)C)cc3F)cc2F)C(C)(C)C)cc1` [Compound A91], the DC50 (AR) was 108 nM and the “eAUC0.5-2 h” value [1] was 3160 ± 2820 ng·h/mL.

For `Cc1ncsc1-c1ccc(CNC(=O)[C@@H]2C[C@@H](O)CN2C(=O)[C@@H](NC(=O)COCCOCCOc2ccc(-c3ncc(N4C(=S)N(c5ccc(C#N)c(C(F)(F)F)c5F)C(=O)C4(C)C)cc3C(F)(F)F)cc2)C(C)(C)C)cc1` [Compound A93], the DC50 (AR) was 51.1 nM and the “eAUC0.5-2 h” value [1] was 275 ± 116 ng·h/mL.

With `Cc1ncsc1-c1ccc(CNC(=O)[C@@H]2C[C@@H](O)CN2C(=O)[C@@H](NC(=O)COCCCCOc2ccc(-c3ncc(N4C(=S)N(c5ccc(C#N)c(C(F)(F)F)c5F)C(=O)C4(C)C)cc3F)c(F)c2)C(C)(C)C)cc1` [Compound A94] the DC50 (AR) was 58.4 nM and the “eAUC0.5-2 h” value [1] was 410 ± 38 ng·h/mL.

In the case of `Cc1ncsc1-c1ccc(CNC(=O)[C@@H]2C[C@@H](O)CN2C(=O)[C@@H](NC(=O)COCCCCOc2ccc(-c3ncc(N4C(=S)N(c5ccc(C#N)c(C(F)(F)F)c5F)C(=O)C4(C)C)cc3C(F)(F)F)c(F)c2)C(C)(C)C)cc1` [Compound A95], the DC50 (AR) is reported as 106 nM and the “eAUC0.5-2 h” value [1] is reported as 1234 ± 430 ng·h/mL.

In the case of `Cc1ncsc1-c1ccc(CNC(=O)[C@@H]2C[C@@H](O)CN2C(=O)[C@@H](NC(=O)COCCCCCOc2c(F)cc(-c3ncc(N4C(=S)N(c5ccc(C#N)c(C(F)(F)F)c5F)C(=O)C4(C)C)cc3F)cc2F)C(C)(C)C)cc1` [Compound A97], the DC50 (AR) is reported as 98.4 nM and the “eAUC0.5-2 h” value [1] is reported as 1690 ± 158 ng·h/mL.

For `Cc1ncsc1-c1ccc(CNC(=O)[C@@H]2C[C@@H](O)CN2C(=O)[C@@H](NC(=O)COCCOCCOc2c(F)cc(-c3ncc(N4C(=S)N(c5ccc(C#N)c(C(F)(F)F)c5F)C(=O)C4(C)C)cc3F)cc2F)C(C)(C)C)cc1` [Compound A99], the DC50 (AR) was 23.2 nM and the “eAUC0.5-2 h” value [1] was 308 ± 288 ng·h/mL.

With `Cc1ncsc1-c1ccc(CNC(=O)[C@@H]2C[C@@H](O)CN2C(=O)[C@@H](NC(=O)COCCCCOc2ccc(-c3ccc(N4C(=S)N(c5ccc(C#N)c(C(F)(F)F)c5F)C(=O)C4(C)C)cn3)cn2)C(C)(C)C)cc1` [Compound A100] the DC50 (AR) was 18.9 nM and the “eAUC0.5-2 h” value [1] was 720 ± 206 ng·h/mL.

With `Cc1ncsc1-c1ccc(CNC(=O)[C@@H]2C[C@@H](O)CN2C(=O)[C@@H](NC(=O)COCCCCOc2ccc(-c3ncc(N4C(=S)N(c5ccc(C#N)c(C(F)(F)F)c5F)C(=O)C4(C)C)cc3C(F)(F)F)c(C(F)(F)F)c2)C(C)(C)C)cc1` [Compound A101] the DC50 (AR) was 115 nM and the “eAUC0.5-2 h” value [1] was 508 ± 171 ng·h/mL.

In the case of `Cc1ncsc1-c1ccc(CNC(=O)[C@@H]2C[C@@H](O)CN2C(=O)[C@@H](NC(=O)COCCCCOc2c(F)cc(-c3ccc(N4C(=S)N(c5ccc(C#N)c(C(F)(F)F)c5F)C(=O)C4(C)C)cn3)cc2F)C(C)(C)C)cc1` [Compound A103], the DC50 (AR) is reported as 152 nM and the “eAUC0.5-2 h” value [1] is reported as 984 ± 617 ng·h/mL.

In the case of `Cc1ncsc1-c1ccc(CNC(=O)[C@@H]2C[C@@H](O)CN2C(=O)[C@@H](NC(=O)[C@H]2CC[C@H](CNC(=O)c3ccc(-c4ccc(N5C(=S)N(c6ccc(C#N)c(C(F)(F)F)c6F)C(=O)C5(C)C)cn4)cc3F)CC2)C(C)(C)C)cc1` [Compound A105], the DC50 (AR) is reported as 188 nM and the “eAUC0.5-2 h” value [1] is reported as 379 ± 300 ng·h/mL.

In the case of `Cc1ncsc1-c1ccc([C@H](C)NC(=O)[C@@H]2C[C@@H](O)CN2C(=O)[C@@H](NC(=O)COCCCCOc2ccc(-c3ncc(N4C(=S)N(c5ccc(C#N)c(C(F)(F)F)c5F)C(=O)C4(C)C)cc3C(F)(F)F)cc2F)C(C)(C)C)cc1` [Compound A108], the DC50 (AR) is reported as 136 nM and the “eAUC0.5-2 h” value [1] is reported as 993 ± 201 ng·h/mL.

With `Cc1ncsc1-c1ccc([C@H](C)NC(=O)[C@@H]2C[C@@H](O)CN2C(=O)[C@@H](NC(=O)COCCCCOc2ccc(-c3ncc(N4C(=S)N(c5ccc(C#N)c(C(F)(F)F)c5F)C(=O)C4(C)C)cc3F)c(C(F)(F)F)c2)C(C)(C)C)cc1` [Compound A109] the DC50 (AR) was 71.4 nM and the “eAUC0.5-2 h” value [1] was 557 ± 108 ng·h/mL.

For `Cc1ncsc1-c1ccc([C@H](C)NC(=O)[C@@H]2C[C@@H](O)CN2C(=O)[C@@H](NC(=O)COCCCCOc2ccc(-c3ncc(N4C(=S)N(c5ccc(C#N)c(C(F)(F)F)c5F)C(=O)C4(C)C)cc3F)cc2F)C(C)(C)C)cc1` [Compound A110], the DC50 (AR) was 56.4 nM and the “eAUC0.5-2 h” value [1] was 1098 ± 208 ng·h/mL.

For `Cc1ncsc1-c1ccc(CNC(=O)[C@@H]2C[C@@H](O)CN2C(=O)[C@@H](NC(=O)COCCCCOc2ccc(-c3ncc(N4C(=S)N(c5ccc(C#N)c(C(F)(F)F)c5F)C(=O)C4(C)C)cn3)cc2F)C(C)(C)C)cc1` [Compound A111], the DC50 (AR) was 46.2 nM and the “eAUC0.5-2 h” value [1] was 297 ± 78 ng·h/mL.
